Experimental data reported in patent publication US11452731B2, “Method of treating and preventing loss of cognition” (ENDORECHERCHE, INC., priority 2009, dated 2022).
“And” between values parts separate entries of the source, which are not always exact repeats. Equal entries are not always repeated.

Assay: Clinical trial ERC-205: DHEA 50 mg daily versus placebo on hot flushes in postmenopausal women (Example 10)
Type: in vivo
Settings: for NUMBER OF MODERATE TO SEVERE HOT FLUSHES PER WEEK (MEAN) / WEIGHTED SEVERITY SCORE OF HOT FLUSHES PER WEEK (MEAN) / NUMBER OF ALL HOT FLUSHES PER WEEK (MEAN): 50 mg, strata ≥71 hot flushes per week at screening; for Number of all hot flushes per week, MEAN / Number of moderate to severe hot flushes per week, MEAN / Weighted severity score of hot flushes per week, MEAN / Mean change from baseline: Frequency of all HF / Mean change from baseline: Frequency of moderate-severe HF / Mean change from baseline: Weighted severity score of HF: DHEA 50 mg daily; for number of all hot flushes per week: women having more than 70 mild, moderate plus severe hot flushes
Protocol: Postmenopausal women experiencing moderate or severe hot flushes per week (as determined by a two week diary) were randomized to receive a daily dose of either placebo or 50 mg DHEA. Fifty evaluable participants (25 patients per arm) were treated for four months with a daily assessment of hot flushes recorded in a diary completed by each participant.
Postmenopausal women aged 40 to 70 years with moderate or severe hot flushes per week, as confirmed by a two-week screening hot flush diary were enrolled after signing informed consent. The protocol was approved by the Institutional Review Board (IRB) of Le Centre Hospitalier de l'Université Laval and by Health Canada.
The primary endpoint was the change from Baseline in the weekly frequency of moderate to severe hot flushes at Week 16, after four months of treatment. The objectives also included the change from Baseline in the weekly frequency of all hot flushes and the change from Baseline in the weekly weighted severity score.
The response endpoint is the patient's paper diary which was filled in daily to specify the number and type of hot flushes as follows:
The hot flush diary began as a Screening diary for two weeks prior to randomization whereby patients had to complete the diary daily, recording the number and severity of hot flushes. The patients had to record an average of 50 or more moderate or severe hot flushes per week over the two-week period to be eligible (i.e., at least 100 hot flushes documented on the two week Screening diary).
Once randomized, the patient completed eight, two-week hot flush diaries upon beginning study medication. The diaries had to be filled out on a daily basis. The first diary was completed over the first two weeks and be returned on the two week visit. The second two-week diary was completed over the next two weeks of the first four week treatment period and was returned at the four week visit. At 4, 8, 12 and 16 week visits, two two-week diaries for hot flushes were collected.

[1] = Screening (mean of 2 w), baseline
[2] = women having 71 or more hot flushes per week at screening
[3] = women having between 50 and 70 per week

## C[C@]12CC[C@H](O)CC1=CC[C@@H]1[C@@H]2CC[C@]2(C)C(=O)CC[C@@H]12 [DHEA, dehydroepiandrosterone]
Week 14
  NUMBER OF MODERATE TO SEVERE HOT FLUSHES PER WEEK (MEAN): 32.0
  WEIGHTED SEVERITY SCORE OF HOT FLUSHES PER WEEK (MEAN): 96.6
  Number of all hot flushes per week, MEAN: 37.6
  Number of moderate to severe hot flushes per week, MEAN: 33.3
  Weighted severity score of hot flushes per week, MEAN: 90.9
Week 15
  NUMBER OF ALL HOT FLUSHES PER WEEK (MEAN): 38.8
  NUMBER OF MODERATE TO SEVERE HOT FLUSHES PER WEEK (MEAN): 34.4
  WEIGHTED SEVERITY SCORE OF HOT FLUSHES PER WEEK (MEAN): 103.6
  Number of all hot flushes per week, MEAN: 37.5
  Number of moderate to severe hot flushes per week, MEAN: 34.0
  Weighted severity score of hot flushes per week, MEAN: 91.8
Week 16
  NUMBER OF ALL HOT FLUSHES PER WEEK (MEAN): 36.3
  NUMBER OF MODERATE TO SEVERE HOT FLUSHES PER WEEK (MEAN): 31.6
  WEIGHTED SEVERITY SCORE OF HOT FLUSHES PER WEEK (MEAN): 95.2
  Mean change from baseline: Frequency of all HF: −39.8
  Mean change from baseline: Frequency of moderate-severe HF: −38.1
  Mean change from baseline: Weighted severity score of HF: −99.1
  Number of all hot flushes per week, MEAN: 36.0±5.7 and 36.0
  Number of moderate to severe hot flushes per week, MEAN: 32.2±5.8 and 32.2
  Weighted severity score of hot flushes per week, MEAN: 87.2±15.8 and 87.2
[1]
  Number of all hot flushes per week, MEAN: 75.5±4.4 and 75.7
  Number of moderate to severe hot flushes per week, MEAN: 70.7±4.5 and 70.7
  Weighted severity score of hot flushes per week, MEAN: 187.1±13.9 and 187.1
Week 1
  Number of all hot flushes per week, MEAN: 64.2
  Number of moderate to severe hot flushes per week, MEAN: 58.6
  Weighted severity score of hot flushes per week, MEAN: 156.0
Week 2
  Number of all hot flushes per week, MEAN: 56.4
  Number of moderate to severe hot flushes per week, MEAN: 51.0
  Weighted severity score of hot flushes per week, MEAN: 137.5
Week 3
  Number of all hot flushes per week, MEAN: 54.6
  Number of moderate to severe hot flushes per week, MEAN: 49.1
  Weighted severity score of hot flushes per week, MEAN: 132.5
Week 4
  Mean change from baseline: Frequency of all HF: −20.4
  Mean change from baseline: Frequency of moderate-severe HF: −20.6
  Mean change from baseline: Weighted severity score of HF: −51.4
  Number of all hot flushes per week, MEAN: 55.3±5.8 and 55.3
  Number of moderate to severe hot flushes per week, MEAN: 50.1±5.7 and 50.1
  Weighted severity score of hot flushes per week, MEAN: 135.7
Week 5
  Number of all hot flushes per week, MEAN: 49.8
  Number of moderate to severe hot flushes per week, MEAN: 44.4
  Weighted severity score of hot flushes per week, MEAN: 120.9
Week 6
  Number of all hot flushes per week, MEAN: 47.9
  Number of moderate to severe hot flushes per week, MEAN: 43.0
  Weighted severity score of hot flushes per week, MEAN: 115.2
Week 7
  Number of all hot flushes per week, MEAN: 44.5
  Number of moderate to severe hot flushes per week, MEAN: 39.6
  Weighted severity score of hot flushes per week, MEAN: 108.3
Week 8
  Mean change from baseline: Frequency of all HF: −31.0
  Mean change from baseline: Frequency of moderate-severe HF: −30.1
  Mean change from baseline: Weighted severity score of HF: −76.9
  Number of all hot flushes per week, MEAN: 44.7±6.3 and 44.7
  Number of moderate to severe hot flushes per week, MEAN: 40.2±6.1 and 40.2
  Weighted severity score of hot flushes per week, MEAN: 109.4
Week 9
  Number of all hot flushes per week, MEAN: 44.3
  Number of moderate to severe hot flushes per week, MEAN: 39.6
  Weighted severity score of hot flushes per week, MEAN: 106.5
Week 10
  Number of all hot flushes per week, MEAN: 43.1
  Number of moderate to severe hot flushes per week, MEAN: 38.6
  Weighted severity score of hot flushes per week, MEAN: 104.5
Week 11
  Number of all hot flushes per week, MEAN: 40.9
  Number of moderate to severe hot flushes per week, MEAN: 36.0
  Weighted severity score of hot flushes per week, MEAN: 98.2
Week 12
  Mean change from baseline: Frequency of all HF: −36.2
  Mean change from baseline: Frequency of moderate-severe HF: −35.6
  Mean change from baseline: Weighted severity score of HF: −93.6
  Number of all hot flushes per week, MEAN: 39.5±5.9 and 39.5
  Number of moderate to severe hot flushes per week, MEAN: 34.7±5.8 and 34.7
  Weighted severity score of hot flushes per week, MEAN: 92.7
Week 13
  Number of all hot flushes per week, MEAN: 37.5
  Number of moderate to severe hot flushes per week, MEAN: 33.2
  Weighted severity score of hot flushes per week, MEAN: 90.1
All women, week 16 (Table 18)
  reduction of the weighted severity score: 99.1±15.6
At 16 weeks
  decrease in weighted severity score: 53.4%
  higher efficacy of DHEA than placebo on weighted severity score: 3.0 fold
Screening to week 16
  decrease in frequency of all hot flushes: 52.4%
  decrease in number of moderate to severe hot flushes: 54.5%
[2]
  decrease in moderate to severe hot flushes: 64.3%
  greater inhibition by DHEA than placebo: 65%
Women having 71 or more hot flushes per week at screening, after DHEA treatment
  mean number of moderate to severe hot flushes per week: 31.6±11.6
Women having 71 or more hot flushes per week at screening, screening value
  mean number of moderate to severe hot flushes per week: 88.5±7.1
Women having between 50 and 70 hot flushes per week
  decrease in weighted severity score: 43.5%
Women having between 50 and 70 hot flushes per week, screening
  weighted severity score: 144.3±6.7
Women having between 50 and 70 hot flushes per week, week 16
  weighted severity score: 81.6±13.6
[3]
  decrease in moderate to severe hot flushes: 43.3%
  inhibition by DHEA over the placebo effect: 43%
Women having between 50 and 70 per week, prescreening
  number of moderate to severe hot flushes per week: 56.7±1.3
Women having between 50 and 70 per week, week 6 as printed
  number of moderate to severe hot flushes per week: 32.7±6.2
Women having more than 70 hot flushes
  decrease in number of all hot flushes: 60%
Women having more than 70 hot flushes per week
  decrease in weighted severity score: 61.6%
Women having more than 70 hot flushes per week, screening
  weighted severity score: 241.6±21.1
Women having more than 70 hot flushes per week, week 16
  weighted severity score: 95.2±34.3
prescreening
  number of all hot flushes per week: 91.0±7.0
Week 16
  number of all hot flushes per week: 36.3±11.5
Women having the largest number of hot flushes of all degrees of severity
  greater efficacy of DHEA than placebo: 50%
